The target in experiment [1] is T1, δ-opioid receptor (Homo sapiens (Human), UniProt P41143). Kind of experiment: δ-opioid receptor [35S]GTPγS functional assay, HEK-293 or CHO cells. It counts as biochemical. As to the method: δ-Opioid Receptor Functional Assay Procedures: Functional [^35S]GTPγS binding assays were conducted as follows. δ-Opioid receptor membrane solution was prepared by sequentially adding final concentrations of 0.026 μg/μl δ membrane protein (Perkin Elmer, Shelton, Conn.), 10 μg/mL saponin, 3 μM GDP and 0.20 nM [^35S]GTPγS to binding buffer (100 mM NaCl, 10 mM MgCl2, 20 mM HEPES, pH 7.4) on ice. The prepared membrane solution (190 μl/well) was transferred to 96-shallow well polypropylene plates containing 10 μl of 20× concentrated stock solutions of agonist prepared in DMSO. Plates were incubated for 30 min at a temperature of about 25° C. with shaking. Reactions were terminated by rapid filtration onto 96-well Unifilter GF/B filter plates (Perkin Elmer, Shelton, Conn.) using a 96-well tissue harvester (Packard) and followed by three filtration washes with 200 μl ice-cold binding buffer (10 mM NaH2PO4, 10 mM Na2HPO4, pH 7.4). Filter plates were subsequently dried at 50° C. for 1-2 hours. Fifty μl/well scintillation cocktail (Perkin Elmer, Shelton, Conn.) was added and plates were counted in a Packard Top-count for 1 min/well.
δ-Opioid Receptor Functional Data: δ GTP EC50 is the concentration of a compound providing 50% of the maximal response for the compound at a δ receptor.
δ GTP Emax (%) is the maximal effect elicited by a compound relative to the effect elicited by met-enkephalin.
In TABLE 2, activity response of certain Compounds of the Invention to the μ-, δ- and κ-opioid receptors was determined as described above for functional assays using HEK-293 or CHO cells.
In general terms: GTPγS resists hydrolysis and so accumulates on activated G proteins.

Experiment [2] concerns the target μ-opioid receptor (Homo sapiens (Human), UniProt P35372). Briefly: μ-opioid receptor [35S]GTPγS functional assay, HEK-293 or CHO cells. It counts as biochemical.
Experiment [3] addresses T1, δ-opioid receptor. Briefly: δ-opioid receptor radioligand dose-displacement binding assay ([3H]-Naltrindole). Conditions: binding affinity, [3H]-Naltrindole displacement. As to the method: δ-Opioid Receptor Binding Assay Procedures: δ-Opioid Receptor Binding Assay Procedures were conducted as follows. Radioligand dose-displacement assays used 0.2 nM [^3H]-Naltrindole (Perkin Elmer, Shelton, Conn.; 33.0 Ci/mmole) with 5 μg membrane protein (Perkin Elmer, Shelton, Conn.) in a final volume of 500 μl binding buffer (5 mM MgCl2, 5% DMSO, 50 mM Trizma base, pH 7.4). Non-specific binding was determined in the presence of 25 μM unlabeled naloxone. All reactions were performed in 96-deep well polypropylene plates for 1 hour at a temperature of about 25° C. Binding reactions were terminated by rapid filtration onto 96-well Unifilter GF/C filter plates (Perkin Elmer, Shelton, Conn.) presoaked in 0.5% polyethylenimine (Sigma). Harvesting was performed using a 96-well tissue harvester (Perkin Elmer, Shelton, Conn.) followed by five filtration washes with 500 μl ice-cold binding buffer. Filter plates were subsequently dried at 50° C. for 1-2 hours. Fifty μl/well scintillation cocktail (Perkin Elmer, Shelton, Conn.) was added and plates were counted in a Packard Top-Count for 1 min/well.

T1 sequence (P41143 whole entry, looked up): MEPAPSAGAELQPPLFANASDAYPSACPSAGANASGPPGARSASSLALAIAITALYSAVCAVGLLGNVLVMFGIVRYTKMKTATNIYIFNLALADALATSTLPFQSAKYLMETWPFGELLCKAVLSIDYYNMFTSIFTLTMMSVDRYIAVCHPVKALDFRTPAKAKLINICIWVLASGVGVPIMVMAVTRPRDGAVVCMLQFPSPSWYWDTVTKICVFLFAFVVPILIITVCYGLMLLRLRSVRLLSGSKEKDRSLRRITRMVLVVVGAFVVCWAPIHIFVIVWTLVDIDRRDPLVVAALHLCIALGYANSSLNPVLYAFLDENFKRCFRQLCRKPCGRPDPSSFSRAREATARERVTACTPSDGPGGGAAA

A word on the EC50: it is the concentration at which the effect is half-maximal. Higher therefore signals lower potency in that assay. By Emax is commonly meant the maximal effect, on the per cent scale that the assay sets. As for `O=C(O)c1cc2c([nH]c1=O)C[C@]13CCN(CC4CC4)[C@H](Cc4ccc(O)cc41)[C@@H]3C2` [Compound 11, (6R,6aR,12aS)-15-(cyclopropylmethyl)-2-hydroxy-10-oxo-6,6a,7,10,11,12-hexahydro-5H-6,12a-(epiminoethano)naphtho[2,1-g]quinoline-9-carboxylic acid], the EC50 is 0.00353 ± 0.0015 µM in experiment [1] and over 20 µM in experiment [2]. Also, in experiment [1] (relative to met-enkephalin, HEK-293 or CHO cells), the maximal response (Emax) came to 36 ± 3.21%.

As usually defined, the Ki is the equilibrium dissociation constant of an inhibitor or competing ligand from its target. A low value points to higher affinity. Take `O=C(O)c1cc2c([nH]c1=O)C[C@]13CCN(CC4CC4)[C@H](Cc4ccc(O)cc41)[C@]3(O)C2` [Compound 9, (6R,6aS,12aR)-15-(cyclopropylmethyl)-2,6a-dihydroxy-10-oxo-6,6a,7,10,11,12-hexahydro-5H-6,12a-(epiminoethano)naphtho[2,1-g]quinoline-9-carboxylic acid]: the EC50 in experiment [1] and in experiment [2] was over 20 µM each time. Also, the affinity in experiment [3], expressed as Ki, was 18.5 ± 2.14 nM.

As to `NC(=O)c1cc2c([nH]c1=O)C[C@]13CCN(CC4CC4)[C@H](Cc4ccc(O)cc41)[C@]3(O)C2` [Compound 5, (6R,6aS,12aR)-15-(cyclopropylmethyl)-2,6a-dihydroxy-10-oxo-6,6a,7,10,11,12-hexahydro-5H-6,12a-(epiminoethano)naphtho[2,1-g]quinoline-9-carboxamide], the EC50 in experiment [1] and in experiment [2] was over 20 µM throughout. Also, the Ki in experiment [3] is 26.4 ± 7.23 nM.

The record behind these values is patent US8980906B2, “Pyridonemorphinan analogs and biological activity on opioid receptors” (Purdue Pharma L.P., priority 2012, dated 2015).
